71 molecules from ChEMBL document CHEMBL2218064, “Structure-activity relationship data for chemical series of antagonists of the P2X7 receptor (Supplementary Bioactivity Data for publication CHEMBL1157114)” can be followed below.

In the assay the target is T1, P2X purinoceptor 7 (Homo sapiens, UniProt Q99572).
T1 sequence (Q99572 whole entry): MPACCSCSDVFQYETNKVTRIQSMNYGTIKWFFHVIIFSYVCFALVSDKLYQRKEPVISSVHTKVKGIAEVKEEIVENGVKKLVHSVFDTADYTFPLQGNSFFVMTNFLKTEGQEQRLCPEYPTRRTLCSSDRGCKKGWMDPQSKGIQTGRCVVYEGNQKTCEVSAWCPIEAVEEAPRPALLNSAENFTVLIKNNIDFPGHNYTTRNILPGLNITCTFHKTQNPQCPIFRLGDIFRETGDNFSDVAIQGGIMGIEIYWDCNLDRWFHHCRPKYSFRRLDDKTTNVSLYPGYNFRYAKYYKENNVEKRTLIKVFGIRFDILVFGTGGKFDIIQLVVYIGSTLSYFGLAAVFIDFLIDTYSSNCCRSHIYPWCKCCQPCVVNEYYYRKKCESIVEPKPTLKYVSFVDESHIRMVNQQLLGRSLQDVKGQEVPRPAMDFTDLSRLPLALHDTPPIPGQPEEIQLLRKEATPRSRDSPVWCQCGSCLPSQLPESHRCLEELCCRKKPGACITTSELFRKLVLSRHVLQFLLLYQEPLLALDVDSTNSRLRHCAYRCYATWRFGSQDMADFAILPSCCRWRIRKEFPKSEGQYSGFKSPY
Put plainly: SUPPLEMENTARY: Inhibition of human P2X7 receptor assessed as inhibition of ethidium bromide accumulation. Same assay as CHEMBL1103860.
For orientation: IC50 means the concentration that gives 50% inhibition. Consider `CN1C(=O)N(c2cncn2C)C[C@H]1C(=O)NCc1cccc(C(F)(F)F)c1Cl`, for which the 50% inhibitory concentration (IC50) is 5.01 nM. The same measure for `O=C(c1ccc(F)cc1Cl)N1CCn2c(-c3ccccc3)cnc2C1`: 15.8 nM; for `CCN1[C@H](C(=O)NCc2cccc(Cl)c2C)CCS1(=O)=O`: 50.1 nM; for `Cc1ccc(Cl)cc1CNC(=O)Cc1c(C)nn(-c2ccccc2)c1C`: 126 nM. As to `O=C1C(=O)N(c2ccccc2N2CCCC2)CCN1Cc1ccc(F)cc1Cl`, the IC50 is 39.8 nM. Regarding `CC(C)N1CCN(C(=O)c2cccc(Cl)c2Cl)CC1=O`, the IC50 is 126 nM. Regarding `O=C(c1cccc(C(F)(F)F)c1Cl)N1CCn2c(nc(C(F)(F)F)c2-c2ccc(F)cc2)C1`, the concentration for half-maximal inhibition (IC50) is 79.4 nM. On to `O=C(c1ccccc1Cl)N1CCn2c(nnc2-c2cnccn2)C1`, for which the IC50 was 20 nM.

Take `COCCN1CCN(C(=O)c2cccc(C(F)(F)F)c2Cl)CC1=O`: the half-inhibitory concentration (IC50) is 316 nM. Next, `O=C(c1ccc(Cl)c(C(F)(F)F)c1)N1CCn2c(nnc2-c2cnccn2)C1`: 31.6 nM; `CCN1CC(C(=O)NCc2cccc(C(F)(F)F)c2Cl)CC1=O` (stereo unspecified): 50.1 nM. Turning to `CN1[C@H](C(=O)NCc2cccc(C(F)(F)F)c2Cl)CCS1(=O)=O`, the half-inhibitory concentration (IC50) was 15.8 nM. Next, `Cc1nn(Cc2ccccn2)c(C)c1CC(=O)NCc1ccc(F)cc1Cl`: 398 nM; `C[C@@H]1CC(=O)N(C)[C@@H]1C(=O)NCc1cccc(C(F)(F)F)c1Cl`: 15.8 nM. The same measure for `O=C(c1cccc(C(F)(F)F)c1Cl)N1CCn2c(nnc2-c2ccc(F)cn2)C1`: 2.51 nM; for `CCN1C(=O)CC[C@H]1C(=O)NCc1cccc(Cl)c1C`: 15.8 nM; for `Cc1nn(-c2ccc(N3CCCC3=O)cc2)c(C)c1CC(=O)NCc1ccc(F)cc1Cl`: 63.1 nM.

For `O=C(c1ccc(F)cc1Cl)N1CCn2c(-c3ccc(F)cn3)cnc2C1`, the IC50 was 25.1 nM. As for `COCCc1nnc2n1CCN(C(=O)c1cccc(C(F)(F)F)c1Cl)C2`, the IC50 is 100 nM. Consider `O=C(c1ccc(Cl)cc1Cl)N1CCn2c(nnc2-c2cscn2)C1`, for which the IC50 was 2 nM. Turning to `Cc1cccc(C)c1N1CCN(Cc2ccc(F)cc2C(F)(F)F)C(=O)C1=O`, the IC50 was 7.94 nM. For `CN1C(=O)N(c2cccnc2Cl)C[C@H]1C(=O)NCc1ccc(Cl)cc1Cl`, the IC50 is 5.01 nM. With `N#Cc1cc(F)ccc1N1CCN(C(=O)c2cccc(Cl)c2Cl)CC1=O`, the IC50 was 3.98 nM. `Cc1ccccc1N1CCN(Cc2ccccc2F)C(=O)C1=O`: the concentration for half-maximal inhibition (IC50) was 1000 nM. `Cc1ccc(-c2cccc(N3CCN(C(=O)c4cccc(C(F)(F)F)c4Cl)CC3=O)c2C)cn1`: the half-maximal inhibitory concentration (IC50) is 50.1 nM.

Turning to `Cc1ccccc1-n1cc(CC(=O)NCc2ccc(F)cc2Cl)cn1`, the IC50 was 631 nM. Consider `COc1cccc(-c2nnc3n2CCN(C(=O)c2ccc(F)cc2Cl)C3)c1`, for which the IC50 was 25.1 nM. Next, `CN1C(=O)CC[C@@H]1C(=O)NCc1ccc(F)cc1C(F)(F)F`: 251 nM; `O=C(c1ccc(Cl)cc1Cl)N1CCn2c(nc(Cl)c2Cl)C1`: 39.8 nM. The same measure for `O=C1C(=O)N(c2cccc(Cl)c2Cl)CCN1Cc1ccc(Cl)cc1`: 794 nM. The same measure for `Cc1nn(-c2ccncc2)c(C)c1CC(=O)NCc1ccc(F)cc1Cl`: 63.1 nM; for `Cc1nn(-c2ccccc2)c(C)c1CC(=O)NCc1c(Cl)cccc1Cl`: 63.1 nM; for `O=C(c1cccc(C(F)(F)F)c1Cl)N1CCn2c(I)cnc2C1`: 3.98 nM.

Consider `O=C(c1cccc(C(F)(F)F)c1Cl)N1CCn2c(nnc2-c2ccncn2)C1`, for which the IC50 is 12.6 nM. Turning to `Cc1nn(-c2ccccc2Cl)c(C)c1CC(=O)NCc1ccc(F)cc1Cl`, the IC50 is 100 nM. The same measure for `Cc1nn(-c2ncc(Cl)cc2Cl)c(C)c1CC(=O)NCc1ccc(F)cc1Cl`: 200 nM; for `Cc1cc(Cl)cc(Cl)c1CNC(=O)[C@@H]1CCC(=O)N1C`: 1.26 nM. Regarding `Cc1nn(CCN2CCOCC2)c(C)c1CC(=O)NCc1ccc(F)cc1Cl`, the IC50 was 251 nM.

As to `CC(C)(C)c1ccccc1N1CCN(Cc2ccc(F)cc2Cl)C(=O)C1=O`, the IC50 is 20 nM. The same measure for `O=C(c1cccc(C(F)(F)F)c1Cl)N1CCn2c(nc(Br)c2-c2ccc(F)cc2)C1`: 31.6 nM; for `O=C(c1cccc(C(F)(F)F)c1Cl)N1CCN(c2cc(N3CCOCC3)ccc2Cl)C(=O)C1`: 7.94 nM. As for `CN1CCN(C(=O)c2cccc(C(F)(F)F)c2Cl)CC1=O`, the IC50 was 63.1 nM. For `O=C(NCc1ccc(F)c(F)c1Cl)[C@@H]1CCC(=O)N1C1CCC1`, the half-maximal inhibitory concentration (IC50) was 10 nM. Regarding `CCN1CC(C(=O)NCc2ccc(Cl)cc2Cl)CC1=O` (stereo unspecified), the concentration for half-maximal inhibition (IC50) is 126 nM. The same measure for `CCN1C(=O)NC[C@H]1C(=O)NCc1cccc(C(F)(F)F)c1Cl`: 3.98 nM. Regarding `CN1C(=O)NC[C@H]1C(=O)NCc1ccc(F)c(C(F)(F)F)c1`, the IC50 was 100 nM. The same measure for `Cc1cccc(C)c1N1CCN(Cc2ccc(Cl)cc2Cl)C(=O)C1=O`: 1.58 nM; for `CN1C(=O)N(c2ccnc(F)c2)C[C@H]1C(=O)NCc1cccc(C(F)(F)F)c1Cl`: 63.1 nM; for `Cc1cccc(N2CCN(Cc3ccc(F)cc3Cl)C(=O)C2=O)c1F`: 158 nM. With `Cc1c(Cl)cccc1CNC(=O)[C@@H]1CN(c2ncccn2)C(=O)N1C`, the IC50 is 7.94 nM.

`Cc1cc(F)ccc1N1CCN(Cc2ccc(F)cc2Cl)C(=O)C1=O`: the concentration for half-maximal inhibition (IC50) is 251 nM.

With `Cc1nn(CCNCC(C)C)c(C)c1CC(=O)NCc1ccc(F)cc1Cl`, the 50% inhibitory concentration (IC50) was 39.8 nM.

As for `Cc1ccccc1CN1CCN(c2ccccc2C)C(=O)C1=O`, the 50% inhibitory concentration (IC50) is 501 nM.

Turning to `O=C(c1cccc(Cl)c1Cl)N1CCn2c(nnc2-c2ccc[nH]2)C1`, the half-maximal inhibitory concentration (IC50) was 2.51 nM. For the molecule `Cc1nn(CCN)c(C)c1CC(=O)NCc1ccc(F)cc1Cl`, the IC50 is 158 nM. The same measure for `Cn1ncc(Cl)c1CC(=O)NCc1ccc(Cl)cc1Cl`: 12.6 nM; for `N#Cc1c(F)cccc1N1CCN(Cc2ccc(F)cc2Cl)C(=O)C1=O`: 631 nM; for `O=C1C(=O)N(c2ccccc2Cl)CCN1Cc1ccc(F)cc1Cl`: 20 nM. Next, `O=C(c1cccc(C(F)(F)F)c1Cl)N1CCn2c(Br)nnc2C1`: 7.94 nM; `CN1[C@H](C(=O)NCc2ccccc2Cl)CCS1(=O)=O`: 794 nM; `Cc1cccc(C)c1N1CCN(Cc2cccc(Cl)c2Cl)C(=O)C1=O`: 6.31 nM. For `CN1CCN(C(=O)c2cccc(Cl)c2Cl)CC1=O`, the IC50 was 200 nM.

Turning to `O=C(c1cccc(C(F)(F)F)c1Cl)N1CCn2c(nc(I)c2I)C1`, the IC50 is 6.31 nM. As to `O=C(c1cccc(C(F)(F)F)c1Cl)N1CCn2c(nnc2-c2ccco2)C1`, the IC50 was 1.58 nM.

Consider `CN1C(=O)N(c2ccccn2)CC1C(=O)NCc1cccc(C(F)(F)F)c1Cl` (stereo unspecified), for which the 50% inhibitory concentration (IC50) was 7.94 nM. As for `O=C(c1cccc(C(F)(F)F)c1Cl)N1CCn2c(-c3cscn3)cnc2C1`, the IC50 is 1.26 nM. The same measure for `CCN1C(=O)C(C)(C)CC1C(=O)NCc1ccc(Cl)cc1Cl` (stereo unspecified): 25.1 nM.

`O=C1C(=O)N(c2cncc3ccccc23)CCN1Cc1ccc(F)cc1Cl`: the concentration for half-maximal inhibition (IC50) is 158 nM. Next, `Cc1nc(-c2nnc3n2CCN(C(=O)c2ccc(F)cc2Cl)C3)cs1`: 158 nM; `CC(C#N)N1CCN(C(=O)c2cccc(C(F)(F)F)c2Cl)CC1=O` (stereo unspecified): 251 nM. Next, `Cc1c(Cl)cccc1CNC(=O)[C@@H]1CCC(=O)N1C(C)C`: 15.8 nM.
